Data published in patent publication US11957139B2, “Compositions for improving nitrogen utilization in a ruminant” (Evonik Operations GmbH, priority 2016, dated 2024).
Where two headings read alike, the source gives them in different places.

Tests used:
Holstein heifers [1] = system: Holstein heifers
Experimental: The objective of this experiment was to evaluate the effects of ruminal versus abomasal infusion of ammonia (an equivalent source of NPN) on food intake in ruminants.
Feed intake was calculated according to the following formula: Feed intake=[amount of feed provided at the beginning of the day]−[amount of feed left intact (i.e. not eaten) after a period of 24 hours]). Results

Holstein heifers [2] = assay: Somatic growth after ruminal versus abomasal infusion (Example 3); type: in vivo; conditions: infused in the abomasum compared to equivalent amount in the rumen; at least 2 months
Text: Heifers are individually weighed on the first day of each experimental period (i.e. day 1) and on the last day of the experimental period (i.e., after at least 2 months, such as after 6 months). […] An increase in body weight indicates an increase in somatic growth while a decrease or no change in body weight indicates a decrease in somatic growth or unchanged somatic growth, respectively.

lactating heifers = assay: Milk production after ruminal versus abomasal infusion (Example 4); type: in vivo, Holstein heifers; conditions: infused in the abomasum compared to equivalent amount in the rumen
Text: The experimental procedure and animal treatments is the same as described above for example 1, except that the Holstein heifers were lactating heifers.

Holstein heifers [3] = assay: Apparent fiber digestibility after ruminal versus abomasal infusion of urea; type: in vivo
Text: The experiment included a four-week adaptation period to a basal diet (in this case mimicking a winter tropical diet (winter tropical climate being an Aw climate) in addition to the distinct experimental periods (i.e. one experimental period per treatment regimen listed in Table 1), each lasting fourteen days.
Each heifer was rumen-cannulated. A tube was inserted into the abomasum via the rumen cannula to bypass the rumen.
The experiment consisted of two treatment groups subjected to different treatment regimens.
After the adaptation period, the heifers were exposed to the treatment regimens (i.e. consecutively, starting with treatment 1 and followed by treatment 2) as described in Table 1 (2 weeks per treatment regimen).
Heifers were fed low quality hay twice a day (08 h 30 and 16 h 30). The heifers were allowed to eat ad libitum during both feeding events.
An amount of one kilogram of compound feed (referred to as the ‘compound feed trial’), as a meal, was given in the morning (08 h 30) through the cannula (see Table 2). The details over the compositions of hay and compound feed (‘compound feed adaptation’ and ‘compound feed trial’) are presented in Table 3 below. Animals had free access to water troughs throughout the day.
All heifers were simultaneously infused in the rumen and the abomasum. This experimental design allowed each heifer to receive every treatment (consecutively), which provided 4 replicates per treatment. The two experimental periods described in Table 1 lasted 14 days each. For each individual treatment regimen, the fourteen-day period consisted of 8 days of adaptation, 4 days for sampling, and 2 days of rest without any infusions.
Whenever the treatment solution was infused in the rumen, a placebo solution (e.g. saline solution) was infused in the abomasum and whenever the treatment solution was infused in the abomasum, a placebo solution (e.g. water) was infused in the rumen. In the present case, it was necessary to infuse a saline solution in the abomasum (as opposed to water) in order to avoid problems related to osmotic pressure due to the small volume of the abomasum. This situation requires the use of a solution, which has an osmotic pressure similar to that of blood. A physiological saline solution fulfils this requirement. […] Therefore, infusion of water is suitable for the rumen.
Each heifer was equipped with two infusion lines via the cannula bung. Specifically, the first line delivered the solution straight into the rumen; the second line passed through the rumen into the omasum, using a rubber flange as anchor, delivering the pumped solution into the abomasum (Gressley et al. (2006)).
Infusate levels and infusion rates were checked 3 times per day (at 09:00 h;16:00 h and 21:00 h). Whenever necessary, manifold tubes with different inner diameter were replaced to adjust rate or level of solution, aiming to reach 10 L (or 5 L during the first two days of the period) infused continually in 24 h. The infusion rate was set at 3.5 mL/min (5 L/d) for the first two days of adaptation in each experimental period and 6.9 mL/min (10 L/d) for the remaining days.
Samples of compound feed and hay were taken from day 09 to 12 of each experimental period. After samples were collected, a portion was used to determine dried matter content (DM) at 60° C. 72 h and the rest was stored at −20° C. in a large bag labelled with the period number and trial code.

Holstein heifers [4] = assay: Nitrogen intake, excretion, digestibility and retention after ruminal infusion of urea sources; type: in vivo
Experimental: Each heifer was rumen-cannulated.
On the first and second day of experimental period, faeces were collected during 48 h. During this period wood shaves were withdrawn from the mattresses. On day 1, before the ruminal infusion of tested articles, a baseline sample was taken directly from the rectum of each animal. From the moment of ruminal incubation, total faeces were collected for 48 hours. During collection days, faeces were well homogenized, weighted, and a sub-sample (≈200 g) taken on the following hours of the day: 0800 (only for day 2) 1100, 1500 and 1900.

Holstein heifers [5] = conditions: 150 g urea equivalent infused into rumen; 0-12 h post-infusion; FIG. 18
Text: Three non-lactating, non-pregnant Holstein heifers were used for the experiment. The Holstein heifers were on average 48±0.5 months of age and weighed on average 800 kg. Each heifer was rumen-cannulated. The experimental design was a 3×3 Latin Square, involving 3 treatments, 3 periods and 3 animals. Experimental unit is the combination animal×period, totalizing 9 experimental units.
The experiment consisted of 3 treatment regimens (i.e. treatment groups 1, 2, and 3). Specifically, each treatment group differed with respect to the NPN composition they received.
Heifers were housed in a tie-stall barn with individual water and feed troughs, rubber mattresses, and wood shaving bedding. The tie-stall was cleaned and the wood shaving replaced daily. Heifers were fed low quality hay ad libitum. Each experimental period last 4 days in which test products were infused in the rumen (day one) and samples were taken on the following 48 h.
Rumen fluid samples were taken at 0, 0.5, 1, 2, 3, 6, and 12 h post-infusion through a tube adapted to the rumen cannula.

[6] = ammonia infused into abomasum over 24 h (AA)
[7] = ammonia infused into rumen over 24 h (AR)
[8] = urea 127 g/day infused into the abomasum over 24 h (UA)
[9] = urea 127 g/day infused into the rumen once a day (UR)
[10] = during the 48 hours following N infusion into rumen

N [ammonia]
Feed intake, Crude Protein (Feed) (Holstein heifers [1]; [6]): 0.581 kg/day
Feed intake, Crude Protein (Total) (Holstein heifers [1]; [6]): 0.952 kg/day
Feed intake, Hay Dry Matter (Holstein heifers [1]; [6]): 6.09 kg/day
Feed intake, Neutral detergent fiber (Holstein heifers [1]; [6]): 4.38 kg/day
Feed intake, Organic Matter (Holstein heifers [1]; [6]): 6.58 kg/day
Feed intake, Total Dry Matter (Holstein heifers [1]; [6]): 6.97 kg/day
Feed intake, Crude Protein (Feed) (Holstein heifers [1]; [7]): 0.537 kg/day
Feed intake, Crude Protein (Total) (Holstein heifers [1]; [7]): 0.907 kg/day
Feed intake, Hay Dry Matter (Holstein heifers [1]; [7]): 5.37 kg/day
Feed intake, Neutral detergent fiber (Holstein heifers [1]; [7]): 3.87 kg/day
Feed intake, Organic Matter (Holstein heifers [1]; [7]): 5.90 kg/day
Feed intake, Total Dry Matter (Holstein heifers [1]; [7]): 6.26 kg/day
feed intake of hay and total nutrient, in words (Holstein heifers [1]; ammonia into abomasum relative to ammonia in the rumen): increase in feed intake
body weight at the end of the treatment (Holstein heifers [2]): increased body weight
milk production at the end of the treatment (lactating heifers): increased milk production

urea
Apparent fiber digestibility, Dry matter (Holstein heifers [3]; [8]): 51.36%
Apparent fiber digestibility, Neutral detergent fiber (Holstein heifers [3]; [8]): 48.27%
Apparent fiber digestibility, Organic matter (Holstein heifers [3]; [8]): 52.79%
Apparent fiber digestibility, Dry matter (Holstein heifers [3]; [9]): 49.35%
Apparent fiber digestibility, Neutral detergent fiber (Holstein heifers [3]; [9]): 43.75%
Apparent fiber digestibility, Organic matter (Holstein heifers [3]; [9]): 50.18%
apparent fiber digestibility, in words (Holstein heifers [3]; urea in the abomasum compared to urea in the rumen): increased
body weight at the end of the treatment (Holstein heifers [2]): increased body weight
milk production at the end of the treatment (lactating heifers): increased milk production
N digestibility (Holstein heifers [4]; ((N intake − N excreted)/N intake) * 100): 61.81%
Total N excretion (Holstein heifers [4]; Faecal N excretion + Urinary N excretion, 48 h): 228.22 g
N excretion faeces (Holstein heifers [4]; [10]): 119.92 g
N excretion urine (Holstein heifers [4]; [10]): 108.30 g
N Intake (Holstein heifers [4]; total N intake in 48 h including N infusion into rumen): 307.58 g
ruminal ammonia concentration over time, in words (Holstein heifers [5]): higher
